In ChEMBL document CHEMBL2429832, “N-substituted 8-aminopentacyclo[5.4.0.0(2,6).0(3,10).0(5,9)]undecanes as σ receptor ligands with potential neuroprotective effects” (Bioorg Med Chem, 2013):

How the values were obtained:
[1] = biological target: T1, 5-hydroxytryptamine receptor 2C (Homo sapiens) (UniProt P28335); test: Inhibition of 5-HT2C receptor (unknown origin) at 10 uM by PDSP assay relative to control
T1 sequence (whole entry): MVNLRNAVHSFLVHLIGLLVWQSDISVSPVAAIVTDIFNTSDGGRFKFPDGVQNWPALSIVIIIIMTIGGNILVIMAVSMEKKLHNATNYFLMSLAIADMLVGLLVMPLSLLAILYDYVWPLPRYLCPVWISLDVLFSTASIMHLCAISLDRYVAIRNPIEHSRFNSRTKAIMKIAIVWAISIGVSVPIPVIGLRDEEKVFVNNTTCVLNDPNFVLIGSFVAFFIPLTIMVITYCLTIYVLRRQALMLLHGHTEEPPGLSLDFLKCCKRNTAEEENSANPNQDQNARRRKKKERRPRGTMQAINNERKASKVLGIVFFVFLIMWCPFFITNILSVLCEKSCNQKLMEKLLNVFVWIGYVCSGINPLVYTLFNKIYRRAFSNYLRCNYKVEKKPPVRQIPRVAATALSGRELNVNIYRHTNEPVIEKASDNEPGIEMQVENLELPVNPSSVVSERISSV

[2] = biological target: 5-hydroxytryptamine receptor 6 (Homo sapiens, UniProt P50406); test: Inhibition of 5-HT6 receptor (unknown origin) at 10 uM by PDSP assay relative to control
5-hydroxytryptamine receptor 6, sequence (P50406 whole entry): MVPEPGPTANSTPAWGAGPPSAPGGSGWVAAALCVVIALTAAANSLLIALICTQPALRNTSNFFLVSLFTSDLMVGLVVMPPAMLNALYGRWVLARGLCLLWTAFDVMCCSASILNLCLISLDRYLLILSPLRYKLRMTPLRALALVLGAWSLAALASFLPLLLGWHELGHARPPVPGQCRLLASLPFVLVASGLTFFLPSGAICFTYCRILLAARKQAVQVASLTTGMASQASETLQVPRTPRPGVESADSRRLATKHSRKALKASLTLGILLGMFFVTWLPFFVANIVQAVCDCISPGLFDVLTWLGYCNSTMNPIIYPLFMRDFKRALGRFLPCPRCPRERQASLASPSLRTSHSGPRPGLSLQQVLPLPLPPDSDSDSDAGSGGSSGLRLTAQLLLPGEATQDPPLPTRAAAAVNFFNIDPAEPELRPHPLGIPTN

[3] = biological target: Kappa-type opioid receptor (Homo sapiens, UniProt P41145); test: Inhibition of kappa opioid receptor (unknown origin) at 10 uM by PDSP assay relative to control
Kappa-type opioid receptor, sequence (P41145 whole entry): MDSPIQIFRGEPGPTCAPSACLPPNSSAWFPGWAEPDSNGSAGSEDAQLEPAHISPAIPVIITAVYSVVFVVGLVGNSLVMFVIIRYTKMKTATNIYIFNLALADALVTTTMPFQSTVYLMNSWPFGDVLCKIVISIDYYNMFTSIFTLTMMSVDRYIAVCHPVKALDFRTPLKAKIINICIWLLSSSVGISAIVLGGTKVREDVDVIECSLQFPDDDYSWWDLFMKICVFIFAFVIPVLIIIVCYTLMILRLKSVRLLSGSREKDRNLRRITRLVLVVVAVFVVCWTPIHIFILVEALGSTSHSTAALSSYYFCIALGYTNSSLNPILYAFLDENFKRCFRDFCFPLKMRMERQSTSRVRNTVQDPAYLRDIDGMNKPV

[4] = biological target: Sodium-dependent serotonin transporter (Homo sapiens, UniProt P31645); test: Displacement of [3H]-citalopram from human SERT expressed in HEK cell membranes at 10 uM relative to control; details: HEK293
Sodium-dependent serotonin transporter, sequence (P31645 whole entry, looked up): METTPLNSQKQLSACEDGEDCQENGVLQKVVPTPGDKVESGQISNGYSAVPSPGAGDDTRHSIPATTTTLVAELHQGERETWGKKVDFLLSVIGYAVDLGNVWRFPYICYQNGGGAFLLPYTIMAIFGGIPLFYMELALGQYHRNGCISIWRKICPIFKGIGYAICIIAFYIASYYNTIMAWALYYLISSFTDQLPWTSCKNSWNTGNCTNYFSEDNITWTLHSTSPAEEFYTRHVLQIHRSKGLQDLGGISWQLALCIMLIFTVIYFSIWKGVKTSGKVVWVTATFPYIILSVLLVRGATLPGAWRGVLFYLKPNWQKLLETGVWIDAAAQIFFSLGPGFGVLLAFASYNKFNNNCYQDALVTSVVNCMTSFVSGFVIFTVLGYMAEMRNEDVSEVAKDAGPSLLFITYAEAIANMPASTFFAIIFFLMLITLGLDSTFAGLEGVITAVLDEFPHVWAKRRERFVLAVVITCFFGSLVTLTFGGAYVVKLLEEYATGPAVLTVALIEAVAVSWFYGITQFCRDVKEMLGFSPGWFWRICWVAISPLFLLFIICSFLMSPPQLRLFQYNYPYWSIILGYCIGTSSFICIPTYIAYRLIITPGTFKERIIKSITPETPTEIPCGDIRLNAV

[5] = biological target: T2, Muscarinic acetylcholine receptor M5 (Homo sapiens) (UniProt P08912); test: Inhibition of muscarinic M5 receptor (unknown origin) at 10 uM by PDSP assay relative to control
T2 sequence (whole entry): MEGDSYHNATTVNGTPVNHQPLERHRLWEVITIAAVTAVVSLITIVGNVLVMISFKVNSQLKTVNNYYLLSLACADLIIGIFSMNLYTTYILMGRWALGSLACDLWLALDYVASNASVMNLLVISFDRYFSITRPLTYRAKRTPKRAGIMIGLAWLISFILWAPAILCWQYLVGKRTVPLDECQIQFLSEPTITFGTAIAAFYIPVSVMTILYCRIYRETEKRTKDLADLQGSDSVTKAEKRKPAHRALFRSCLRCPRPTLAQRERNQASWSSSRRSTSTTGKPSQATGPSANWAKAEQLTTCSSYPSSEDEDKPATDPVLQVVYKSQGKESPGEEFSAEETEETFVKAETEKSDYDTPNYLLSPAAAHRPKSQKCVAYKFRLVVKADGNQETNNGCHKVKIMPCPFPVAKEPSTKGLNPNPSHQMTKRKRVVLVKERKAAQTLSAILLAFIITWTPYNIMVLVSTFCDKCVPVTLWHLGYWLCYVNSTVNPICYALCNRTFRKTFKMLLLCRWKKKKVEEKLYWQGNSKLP

[6] = biological target: T3, Alpha-1D adrenergic receptor (Homo sapiens) (UniProt P25100); test: Inhibition of adrenergic alpha1D receptor (unknown origin) at 10 uM by PDSP assay relative to control
T3 sequence (whole entry): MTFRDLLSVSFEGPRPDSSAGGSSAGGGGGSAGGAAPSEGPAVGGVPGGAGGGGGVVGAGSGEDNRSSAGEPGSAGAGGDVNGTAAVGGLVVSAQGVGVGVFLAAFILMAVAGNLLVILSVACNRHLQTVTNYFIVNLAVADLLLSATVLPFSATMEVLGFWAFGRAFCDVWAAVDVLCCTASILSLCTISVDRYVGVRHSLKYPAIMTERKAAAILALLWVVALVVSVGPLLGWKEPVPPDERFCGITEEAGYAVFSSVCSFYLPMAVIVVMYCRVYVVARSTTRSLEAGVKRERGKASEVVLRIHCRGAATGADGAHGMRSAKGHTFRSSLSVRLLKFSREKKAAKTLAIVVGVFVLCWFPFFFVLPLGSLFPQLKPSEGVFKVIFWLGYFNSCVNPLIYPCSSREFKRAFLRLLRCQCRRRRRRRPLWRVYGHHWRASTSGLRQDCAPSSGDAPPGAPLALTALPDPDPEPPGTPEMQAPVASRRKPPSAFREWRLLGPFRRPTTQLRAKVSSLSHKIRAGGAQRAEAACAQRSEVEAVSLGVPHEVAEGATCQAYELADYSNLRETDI

Rattus norvegicus = species on record: Rattus norvegicus; test: Inhibition of rat brain BZP receptor at 10 uM by PDSP assay relative to control
[7] = biological target: T4, Alpha-2B adrenergic receptor (Homo sapiens) (UniProt P18089); test: Inhibition of adrenergic alpha2B receptor (unknown origin) at 10 uM by PDSP assay relative to control
T4 sequence (whole entry): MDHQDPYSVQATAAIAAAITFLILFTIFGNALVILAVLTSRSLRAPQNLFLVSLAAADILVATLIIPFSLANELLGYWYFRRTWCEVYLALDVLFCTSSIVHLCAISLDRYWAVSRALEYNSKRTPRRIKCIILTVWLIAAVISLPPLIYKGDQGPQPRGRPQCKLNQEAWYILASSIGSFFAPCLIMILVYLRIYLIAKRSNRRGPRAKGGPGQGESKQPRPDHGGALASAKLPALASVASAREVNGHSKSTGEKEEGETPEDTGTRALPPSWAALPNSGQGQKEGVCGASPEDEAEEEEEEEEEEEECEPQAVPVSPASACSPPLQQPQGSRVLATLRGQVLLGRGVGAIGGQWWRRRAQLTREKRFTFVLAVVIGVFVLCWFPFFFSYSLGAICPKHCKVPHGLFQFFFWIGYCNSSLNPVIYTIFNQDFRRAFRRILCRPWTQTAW

[8] = biological target: T5, Muscarinic acetylcholine receptor M2 (Homo sapiens, UniProt P08172); test: Inhibition of muscarinic M2 receptor (unknown origin) by PDSP assay
T5 sequence (P08172 whole entry): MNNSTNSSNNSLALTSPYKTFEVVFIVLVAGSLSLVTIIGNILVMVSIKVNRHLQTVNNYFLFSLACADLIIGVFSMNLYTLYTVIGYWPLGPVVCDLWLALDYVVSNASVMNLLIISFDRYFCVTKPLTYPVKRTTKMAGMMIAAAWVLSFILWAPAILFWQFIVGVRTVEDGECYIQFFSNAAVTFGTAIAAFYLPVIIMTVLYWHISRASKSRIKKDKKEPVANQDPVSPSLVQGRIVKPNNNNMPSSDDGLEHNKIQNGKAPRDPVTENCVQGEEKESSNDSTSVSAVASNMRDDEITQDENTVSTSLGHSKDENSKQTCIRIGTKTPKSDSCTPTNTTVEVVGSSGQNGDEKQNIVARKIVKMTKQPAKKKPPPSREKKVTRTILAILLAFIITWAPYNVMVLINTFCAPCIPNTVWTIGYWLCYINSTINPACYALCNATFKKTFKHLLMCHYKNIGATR

[9] = biological target: 5-hydroxytryptamine receptor 1B (Homo sapiens, UniProt P28222); test: Inhibition of 5-HT1B receptor (unknown origin) at 10 uM by PDSP assay relative to control
5-hydroxytryptamine receptor 1B, sequence (P28222 whole entry): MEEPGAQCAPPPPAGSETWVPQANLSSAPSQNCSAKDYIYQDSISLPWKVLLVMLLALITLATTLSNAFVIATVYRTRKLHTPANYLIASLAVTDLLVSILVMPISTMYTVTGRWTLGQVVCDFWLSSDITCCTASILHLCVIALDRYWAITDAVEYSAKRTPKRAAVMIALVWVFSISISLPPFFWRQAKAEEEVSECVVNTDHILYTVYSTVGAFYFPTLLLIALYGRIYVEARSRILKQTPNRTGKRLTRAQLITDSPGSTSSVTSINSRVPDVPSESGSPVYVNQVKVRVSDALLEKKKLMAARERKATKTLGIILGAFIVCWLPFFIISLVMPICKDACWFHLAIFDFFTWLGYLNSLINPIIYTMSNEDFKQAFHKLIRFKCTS

inhibition [1] [%]	inhibition [2] [%]	inhibition [3] [%]	inhibition [4] [%]	inhibition [5] [%]	inhibition [6] [%]	inhibition (Rattus norvegicus) [%]	inhibition [7] [%]	Ki [8] [µM]	inhibition [9] [%]	Compound
< 50	< 50	< 50	< 50	< 50	< 50	< 50	< 50	8.85	< 50	CN(Cc1cccnc1)[C@H]1C2C3CC4C2C(=O)C2C4C3C21 (some centres not stated)
< 50	< 50	< 50	< 50	< 50	< 50	< 50	< 50	1.73	< 50	CN(Cc1cccc(F)c1)[C@H]1C2C3CC4C2C(=O)C2C4C3C21 (some centres not stated)
< 50	< 50	< 50	< 50	–	< 50	< 50	< 50	0.474	< 50	CN(Cc1ccccc1)[C@H]1C2C3CC4C2C(=O)C2C4C3C21 (some centres not stated)
< 50	< 50	–	< 50	< 50	< 50	< 50	< 50	> 10	< 50	CN(Cc1cccnc1)[C@H]1C2C3CC4C5C3CC2C5C41 (some centres not stated)
< 50	< 50	–	< 50	< 50	< 50	< 50	< 50	3.55	< 50	CN(CCc1ccccn1)[C@H]1C2C3CC4C5C3CC2C5C41 (some centres not stated)
